In publication PMC10600239, “Selective MCL-1 inhibitor ABBV-467 is efficacious in tumor models but is associated with cardiac troponin increases in patients” (Communications Medicine, 2023) one finds Ki and EC50 data, which are given here for two molecules.

One assay concerns the target T1, BCL2-A1 (Homo sapiens, UniProt Q16548).
T1 sequence (Q16548 1-175): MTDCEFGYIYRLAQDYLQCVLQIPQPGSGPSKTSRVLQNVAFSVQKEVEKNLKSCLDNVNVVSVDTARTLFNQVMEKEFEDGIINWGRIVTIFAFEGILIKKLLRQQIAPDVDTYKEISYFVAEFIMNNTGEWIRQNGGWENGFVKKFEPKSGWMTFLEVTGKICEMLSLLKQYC
Put plainly: Time-resolved FRET binding assay. The protocol:
(§1) Binding affinities for MCL-1, BCL-2, BCL-XL, BCL-W, and BCL2-A1 were determined using a time-resolved fluorescence resonance energy transfer (FRET) assay. Test compounds were serially diluted in DMSO starting at […] (20× starting concentration; 100% DMSO followed by a 1:10 dilution of the compound DMSO plate into assay buffer); 10 µL of the compound in 10% DMSO was then transferred into a 384-well plate (low-volume Corning #3673 assay plate). Glutathione S-transferase (GST)-tagged recombinant BCL-2, BCL-XL, MCL-1, BCL-W, or BCL2-A1 protein (1 nM each) were mixed with 100 nM Oregon Green™-labeled f-BAK peptide probe and 1 nM Tb-labeled anti-GST antibody were mixed. Then 10 µL of a 2× protein/probe/antibody mix was added to each well of increasing concentrations of test compound in assay buffer (20 mM potassium phosphate, pH 7.6, 50 mM NaCl, 1 mM ethylenediaminetetraacetic acid disodium salt dihydrate, 0.05% pluronic acid F-68, 1 mM DL-dithiothreitol) at room temperature (final concentrations listed in Supplementary Table S2). The samples were then mixed on a shaker for 1 min and incubated for an additional 1 h at room temperature. For each assay plate, a probe/antibody and protein/antibody/probe mixture were included as a negative and a positive control, respectively. Fluorescence was measured on the EnVision™ (Perkin Elmer) using a 340/35-nm excitation filter and 520/525- (F-Bak) and 495/510-nm (Tb-labeled anti-glutathione S-transferase [GST] antibody) emission filters. Dissociation constants were determined using Wang’s equation[35]. The time-resolved FRET assay can be performed in the presence of varying concentrations of human serum to determine apparent half-maximal inhibitory concentration after serum protein binding.

The target in another assay is T2, BCL-W (Homo sapiens, UniProt Q92843).
T2 sequence (Q92843 1-193): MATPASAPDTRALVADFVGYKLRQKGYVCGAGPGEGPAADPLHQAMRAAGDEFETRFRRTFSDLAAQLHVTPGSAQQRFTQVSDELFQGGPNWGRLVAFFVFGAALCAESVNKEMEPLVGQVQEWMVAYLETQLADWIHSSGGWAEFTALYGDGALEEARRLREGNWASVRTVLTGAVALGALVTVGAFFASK
As to the kind of experiment: Time-resolved FRET binding assay. As for the experimental part: as §1

The next assay addresses BCL-2 (Homo sapiens, UniProt P10415). As to the kind of experiment: Time-resolved FRET binding assay. The protocol:
as §1

Another assay deals with BCL-XL (Homo sapiens, UniProt Q07817). As to the kind of experiment: Time-resolved FRET binding assay. The protocol:
as §1

For a further assay, the system named is AMO-1 cells. Put plainly: In vitro cell viability assay (CellTiter-Glo). In kind it is cell-based, human. The settings on record: Homo sapiens. As for the experimental part:
(§2) All cell lines were grown and treated in RPMI 1640 or Dulbecco’s modified Eagle medium (Sigma, St. Louis, MO) supplemented with 10% fetal bovine serum (Gibco) or 10% human serum (Sigma) and maintained in a humidified incubator at 5% CO2 and 37 °C. DLD-1, MV4-11, NCI-H929 (all ATCC, Manassas, VA, USA) and AMO-1 (DSMZ, Braunschweig, Germany) cells were plated 4000 cells per well in 384-well tissue culture plates and treated with compounds of interest for 24 h at 37 °C, 5% CO2 humidified incubator. Each concentration was tested in duplicate at least 3 separate times. Adherent cells were allowed to adhere overnight prior to treatment. Alternatively, AMO-1 or NCI-H929 cells were treated with ABBV-467 for the indicated contact times (1–24 h) at 37 °C in a 5% CO2 humidified incubator and washed 3 times with compound-free media prior to incubation for the remainder of a 24-h treatment period. Cell viability was subsequently determined using CellTiter-Glo (Promega, Madison, WI, USA) according to the manufacturer’s instructions.
(§3) For in vitro viability assays, mean EC50 and EC90 values were determined from the resulting dose-response curves from at least 3 independent experiments, and depict the mean ± standard error of the mean.
(§4) Fig. 2 Apoptosis induced by ABBV-467 is mechanism based and induces cell death in MCL-1-dependent cell lines after short target engagement periods. H929 cells were treated with ABBV-467 in the presence or absence of the pan-caspase inhibitor z-VAD-fmk (50 µM) and the impact on caspase-3/7 activation (a), mitochondrial membrane potential (ΔΨm; b), and apoptosis (c) determined. Alternatively, BAK-deficient SKBR3 cells were treated with ABBV-467 for 24 h and the impact on cell viability compared with the parental cell line, determined by CellTiter-Glo. Inset depicts a western blot of BAK and BAX expression in SKBR3 cell variants using GAPDH as a loading control. Each of the 3 proteins were probed on separate blots (d). Data in (a–d) are presented as the mean ± standard error of the mean. H929 and AMO-1 cells were treated with ABBV-467 at the indicated concentrations and the impact on caspase-3/7 activation and viability (DRAQ7-positive) cells determined over time by Incucyte®. Data are presented as the mean ± standard deviation (e). H929 or AMO-1 cells were cultured in media containing 10% human serum and treated with ABBV-467 for the indicated contact times. Cells were subsequently washed 3 times with drug-free media and incubated in drug-free media for the remainder of the 24-h treatment period at 37 °C before cell viability was determined by CellTiter-Glo. Mean EC50 and EC90 values were determined from the resulting dose-response curves from at least 3 independent experiments, each assessed in quadruplicate, and depict the mean ± standard error of the mean. Presented ABBV-467 dose-response curves in H929 and AMO-1 cells were compiled from at least 3 independent experiments (f).
A general note: Cellular ATP, detected with luciferase, serves as a proxy for viable cell number.

The subject of another assay is DLD-1 cells. Put plainly: In vitro cell viability assay (CellTiter-Glo). It is filed as cell-based, human. The protocol: as §2, §3
Another assay relates to MV4-11 cells. As to the kind of experiment: In vitro cell viability assay (CellTiter-Glo). The settings on record: Homo sapiens. In kind it is cell-based, human. As for the experimental part: as §2, §3
For a further assay, the system named is H929 cells. As to the kind of experiment: In vitro cell viability assay (CellTiter-Glo). The settings on record: Homo sapiens. In kind it is cell-based, human. As for the experimental part: as §2, §3, §4
Another assay deals with human MCL-1 (Homo sapiens, UniProt Q07820). Put plainly: Time-resolved FRET binding assay. The protocol:
as §1, with “Test” for “Binding affinities for MCL-1, BCL-2, BCL-XL, BCL-W, and BCL2-A1 were determined using a time-resolved fluorescence resonance energy transfer (FRET) assay. Test”

The mark [1] stands for this setting: TR-FRET, arithmetic mean, read-out: Arithmetic Mean Ki, BCL-2.
Where [2] appears, read: TR-FRET, individual determinations, read-out: Individual Ki, BCL-2.
Where [3] appears, read: read-out: TR-FRET, Ki, nM BCL-2.
[4] abbreviates: TR-FRET, arithmetic mean, read-out: Arithmetic Mean Ki, BCL-XL.
Setting [5] is: TR-FRET, individual determinations, read-out: Individual Ki, BCL-XL.
Where [6] appears, read: read-out: TR-FRET, Ki, nM BCL-XL.

Where “and” joins values, the source holds several entries; their conditions need not be identical. Equal values may be shown once. Read-outs that look alike come from different tables or passages of the source.

Chain of human MCL-1 (Q07820 whole entry): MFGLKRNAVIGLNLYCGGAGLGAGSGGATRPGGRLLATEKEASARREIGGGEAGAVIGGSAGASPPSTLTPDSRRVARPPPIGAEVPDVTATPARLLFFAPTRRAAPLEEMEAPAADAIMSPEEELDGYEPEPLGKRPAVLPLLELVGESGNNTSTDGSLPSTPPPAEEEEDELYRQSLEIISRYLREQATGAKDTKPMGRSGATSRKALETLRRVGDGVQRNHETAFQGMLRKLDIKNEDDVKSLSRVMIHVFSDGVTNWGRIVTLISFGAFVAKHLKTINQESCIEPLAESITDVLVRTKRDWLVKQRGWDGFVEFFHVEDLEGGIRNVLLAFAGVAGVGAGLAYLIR
Chain of BCL-2 (P10415 whole entry): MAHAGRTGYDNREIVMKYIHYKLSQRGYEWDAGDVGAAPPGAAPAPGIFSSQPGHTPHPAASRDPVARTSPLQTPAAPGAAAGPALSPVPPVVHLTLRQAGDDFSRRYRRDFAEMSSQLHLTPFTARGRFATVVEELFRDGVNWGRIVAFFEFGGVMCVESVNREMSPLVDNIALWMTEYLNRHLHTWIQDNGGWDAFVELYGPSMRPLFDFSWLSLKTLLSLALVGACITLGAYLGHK
Chain of BCL-XL (Q07817 whole entry): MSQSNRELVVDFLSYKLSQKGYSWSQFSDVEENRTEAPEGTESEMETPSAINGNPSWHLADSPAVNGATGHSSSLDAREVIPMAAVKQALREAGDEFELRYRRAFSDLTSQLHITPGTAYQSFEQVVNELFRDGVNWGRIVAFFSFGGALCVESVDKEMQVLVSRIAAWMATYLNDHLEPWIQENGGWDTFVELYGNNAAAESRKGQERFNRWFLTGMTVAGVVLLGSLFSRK

Usually Ki stands for a measure of affinity in units of concentration, obtained from inhibition or displacement. The term EC50 denotes the concentration giving half of the maximal effect. Take `COc1ccccc1-c1nccc(COc2ccccc2CC(Oc2ncnc3sc(-c4ccc(F)cc4)c(-c4ccc(OCCN5CCN(C)CC5)c(Cl)c4C)c23)C(=O)O)n1` (stereo not shown) [Compound 1, reference compound]: the Ki on BCL2-A1 (TR-FRET, arithmetic mean, read-out: Arithmetic Mean Ki, BCL2-A1) is over 468 nM; at BCL2-A1 (TR-FRET, individual determinations, read-out: Individual Ki, BCL2-A1), over 468 nM; at BCL2-A1 (read-out: TR-FRET, Ki, nM BCL2-A1) it was over 468 nM; at BCL-W (TR-FRET, arithmetic mean, read-out: Arithmetic Mean Ki, BCL-W), over 468 nM; on BCL-W (TR-FRET, individual determinations, read-out: Individual Ki, BCL-W), over 468 nM; on BCL-W (read-out: TR-FRET, Ki, nM BCL-W), over 468 nM. Also, the Ki is 599 nM on BCL-2 (setting [1]); 319 nM and 376 nM and 955 nM and 745 nM on BCL-2 (setting [2]); 599 nM at BCL-2 (setting [3]); over 660 nM on BCL-XL (setting [4]); over 660 nM at BCL-XL (setting [5]); over 660 nM at BCL-XL (setting [6]). The EC50 in the assay on AMO-1 cells (AMO1, 24 h, read-out: AMO-1 EC50 (nM, 10% FBS), 10% FBS, 24 h continuous treatment) was 2.06 nM; in the assay on AMO-1 cells (AMO1, AMO-1, arithmetic mean, read-out: Arithmetic Mean EC50 µM), 2.06 nM; with DLD-1 cells (DLD-1, individual determinations, listed as MIK665, read-out: Individual EC50), > 1000 nM and > 10000 nM and 4770 nM and 3350 nM and 6620 nM and 4370 nM and 4270 nM and 5810 nM and 4060 nM; with DLD-1 cells (Homo sapiens, DLD-1, 24 h, read-out: DLD-1 EC50 (nM, 10% FBS), 10% FBS, 24 h continuous treatment) it was 4750 nM; with MV4-11 cells (MV4-11, 24 h, read-out: MV4-11 EC50 (nM, 10% FBS), 10% FBS, 24 h continuous treatment), 10.9 nM; in the assay on MV4-11 cells (MV4-11, MV4-11, arithmetic mean, read-out: Arithmetic Mean EC50 µM), 10.9 nM. Moreover, the EC50 in the assay with H929 cells (NCI-H929, 24 h, read-out: H929 EC50 (nM, 10% FBS), 10% FBS, 24 h continuous treatment) was determined as 4.75 nM; with H929 cells (NCI-H929, NCI-H929, arithmetic mean, read-out: Arithmetic Mean EC50 µM) it was 4.75 nM.

With `COc1ccccc1-c1nccc(COc2ccc3cc2CC(C(=O)O)Oc2ncnc4sc(-c5ccc(F)cc5)c(c24)-c2ccc(c(Cl)c2C)N(CCN2CCN(C)CC2)C3)n1` (stereo not shown) [Compound 2], the Ki on human MCL-1 (TR-FRET, individual determinations, read-out: Individual Ki, MCL1) is 2.48 nM and 5.01 nM and 9.14 nM; on human MCL-1 (read-out: TR-FRET, Ki, nM MCL-1), 5.54 nM; on BCL-2 (setting [1]), over 1200 nM; on BCL-2 (setting [2]) it was over 1200 nM; on BCL-2 (setting [3]), over 1200 nM; on BCL-XL (setting [4]), over 660 nM. In addition, the Ki at BCL-XL (setting [5]) and on BCL-XL (setting [6]) was over 660 nM each time.
